From PMC6151695, “Novel Selective Estrogen Receptor Ligand Conjugates Incorporating Endoxifen-Combretastatin and Cyclofenil-Combretastatin Hybrid Scaffolds: Synthesis and Biochemical Evaluation” (Molecules : A Journal of Synthetic Chemistry and Natural …, 2017)
Entries after “also recorded” stand apart in the source; their conditions may differ. Like-named read-outs stand apart in the source and are kept apart here.

Legend:
[1] = system: MCF-7 human breast cancer cell line; test: Alamar Blue assay for antiproliferative effects; assay type: cell-based; settings: for IC50: Homo sapiens
MCF-7 cells [2] = test: Flow cytometry (propidium iodide) cell cycle and apoptosis analysis in MCF-7; assay type: cell-based, human; settings: for apoptosis (in words): MCF-7, 72 h; for apoptosis / G2/M-arrest: MCF-7, 10 µM, 72 h
Experimental: Flow cytometry with propidium iodide stained cells was carried out to analyse the percentage of cells in each stage of the cell cycle and the number of apoptotic or dead cells. Samples were treated for 72 h at 10 µM. […] […].
(§1) MCF-7 cells were seeded at a density of 5 × 10^4 cells/well in a 12-well plate and treated with the indicated compounds for 72 h. Samples were then centrifuged at 650× g for 5 min and resuspended in 100 µL ice-cold PBS. Ice-cold 70% (v/v) ethanol (1 mL) was then added to fix the samples overnight at 4 °C. Samples were subsequently centrifuged at 800× g for 10 min and resuspended in 200 µL PBS. RNase A (12.5 µL of 10 mg/mL) and propidium iodide (37.5 µL of 1 mg/ mL) were added to samples which were then incubated for 30 min at 37°C. Cell cycle analysis was performed at 488 nm using a FACS Calibur flow cytometer (Becton Dickinson, Franklin Lakes, NJ, USA). The Macintosh-based application CellQuest was then used to analyse the data of 10,000 gated cells once cell debris had been excluded. Data points represent the mean ± S.E.M. of three independent experiments.

human ERα = biological target: T1, human ERα (Homo sapiens, UniProt P03372); test: Estrogen receptor fluorescence polarisation competitive binding assay, ERα; settings: for Selectivity (α/β): ratio of RBA values ERα relative to ERβ; for ERα RBA: relative binding affinity, estradiol (5.7 nM) = 100%
T1 construct: purchased Invitrogen
T1 sequence (P03372 1-595): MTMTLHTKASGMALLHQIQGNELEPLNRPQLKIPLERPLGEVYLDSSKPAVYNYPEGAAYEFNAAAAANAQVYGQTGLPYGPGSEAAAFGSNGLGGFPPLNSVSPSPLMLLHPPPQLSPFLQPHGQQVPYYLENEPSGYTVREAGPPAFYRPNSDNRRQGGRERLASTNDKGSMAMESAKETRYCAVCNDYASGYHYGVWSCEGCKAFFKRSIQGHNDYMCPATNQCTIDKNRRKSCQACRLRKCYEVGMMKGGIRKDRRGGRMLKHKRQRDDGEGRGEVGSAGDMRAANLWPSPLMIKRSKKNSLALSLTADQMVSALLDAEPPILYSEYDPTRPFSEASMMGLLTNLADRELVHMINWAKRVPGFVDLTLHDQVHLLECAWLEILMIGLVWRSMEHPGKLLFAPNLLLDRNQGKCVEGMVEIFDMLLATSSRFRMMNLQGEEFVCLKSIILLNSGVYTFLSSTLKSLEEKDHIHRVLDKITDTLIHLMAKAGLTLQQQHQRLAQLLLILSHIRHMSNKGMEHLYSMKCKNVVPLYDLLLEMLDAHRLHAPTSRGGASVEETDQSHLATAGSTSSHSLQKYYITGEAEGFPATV

[3] = system: peripheral blood mononuclear cells (PBMCs); test: Flow cytometry (propidium iodide) in PBMCs of healthy donors; assay type: cell-based, human; settings: 10 µM, 72 h
Experimental: Next, the same cohort of compounds was tested on peripheral blood mononuclear cells (PBMCs) isolated from the blood of healthy donors. Cells were treated with 10 µM of each compound for 72 h and subjected to flow cytometry.
as §1
Fresh peripheral blood was collected from healthy donors and diluted 1:3 with RPMI medium and added to half the equivalent volume of Lymphoprep. Samples were centrifuged at 750× g for 30 min to form a Ficoll gradient. The white buffy layer containing the peripheral blood mononuclear cells was removed, diluted to a volume of 50 mL with medium and centrifuged again for 10 min at 650× g. Cells were then seeded at a density of 1 × 10^6 cells in 1 mL of RPMI medium supplemented with 10% FBS, 2 mM L-glutamine and 100 U/mL penicillin and 100 µg/mL streptomycin.

human ERβ = biological target: T2, human ERβ (Homo sapiens, UniProt Q92731); test: Estrogen receptor fluorescence polarisation competitive binding assay, ERβ
T2 construct: purchased Invitrogen
T2 sequence (Q92731 whole entry): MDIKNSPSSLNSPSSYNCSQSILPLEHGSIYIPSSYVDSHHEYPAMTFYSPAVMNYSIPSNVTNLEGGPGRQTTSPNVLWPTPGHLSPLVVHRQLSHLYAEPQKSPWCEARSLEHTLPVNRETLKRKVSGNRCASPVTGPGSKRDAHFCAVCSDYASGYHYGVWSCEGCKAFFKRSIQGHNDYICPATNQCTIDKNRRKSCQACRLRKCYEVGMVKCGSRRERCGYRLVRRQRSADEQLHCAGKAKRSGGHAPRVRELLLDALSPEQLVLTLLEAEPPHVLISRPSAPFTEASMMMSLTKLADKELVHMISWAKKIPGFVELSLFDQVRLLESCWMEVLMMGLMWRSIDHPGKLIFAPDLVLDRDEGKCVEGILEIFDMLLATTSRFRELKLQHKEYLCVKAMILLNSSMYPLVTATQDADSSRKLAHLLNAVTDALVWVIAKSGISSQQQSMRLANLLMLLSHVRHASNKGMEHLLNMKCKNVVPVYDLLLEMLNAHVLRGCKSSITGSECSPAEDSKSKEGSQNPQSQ

MCF-7 cells [4] = test: Lactate dehydrogenase (LDH) assay for cytotoxicity
MCF-7 cells [5] = settings: human
in vitro = settings: plasma
[6] = HPLC stability study in phosphate buffer
[7] = MCF7, 72 h, MCF-7, 72 h, Alamar Blue, read-out: IC50 (μM), antiproliferative effects
[8] = competitive binding, fluorescence polarisation, read-out: ERα IC50
[9] = competitive binding, fluorescence polarisation, read-out: ERβ IC50
[10] = MCF7, 72 h, read-out: IC50 (μM), antiproliferative effects

Molecule	IC50 [1, 7] [µM]	apoptosis (in words) (MCF-7 cells [2])	IC50 (human ERα; [8]) [nM]	Selectivity (α/β) (human ERα)	ERα RBA (human ERα) [%]	apoptosis / toxic effects in PBMCs (in words) [3]	IC50 (human ERβ; [9]) [nM]	apoptosis (MCF-7 cells [2]) [%]	also measured
CCC(=C(c1ccc(O)cc1)c1ccc(OCCN(C)C(=O)/C(=C/c2cc(OC)c(OC)c(OC)c2)c2ccc(OC)c(O)c2)cc1)c1ccccc1 (mixture of isomers) [Compound 3i, (E/Z)-2-(3-Hydroxy-4-methoxyphenyl)-N-(2-(4-((Z)-1-(4-hydroxyphenyl)-2-phenylbut-1-en-1-yl)phenoxy)-ethyl)-N-methyl-3-(3,4,5-trimethoxyphenyl)acrylamide]	4.2	potently induce apoptosis	182	2.44	3.13	lack of toxicity	436		
COc1ccc(/C=C\c2cc(OC)c(OC)c(OC)c2)cc1O [CA4, Combretastatin A-4, reference compound]	0.008								cytotoxicity (LDH assay) (MCF-7 cells [4]): 13%
CNCCOc1ccc(C(=C2CCCCCC2)c2ccc(O)cc2)cc1 [Compound 11c, 4-(Cycloheptylidene(4-(2-(methylamino)ethoxy)phenyl)methyl)phenol]	1.38	potently induce apoptosis	1740	0.12	0.328	induced apoptosis in PBMCs	199	79.7 ± 5.2	
CNCCOc1ccc(C(=C2CCCCCCC2)c2ccc(O)cc2)cc1 [Compound 11d, 4-(Cyclooctylidene(4-(2-(methylamino)ethoxy)phenyl)methyl)phenol]	3.23		170	0.67	3.35		112		
CNCCOc1ccc(C(=C2CCC(C)CC2)c2ccc(O)cc2)cc1 (stereo not shown) [Compound 11e, 4-((4-(2-(Methylamino)ethoxy)phenyl)(4-methylcyclohexaneylidene)methyl)phenol]	1.77	potently induce apoptosis	3160	0.02	0.180	induced apoptosis in PBMCs	67	76	
COc1ccc(/C=C(/C(=O)N(C)CCOc2ccc(C(=C3CCCC3)c3ccc(O)cc3)cc2)c2cc(OC)c(OC)c(OC)c2)cc1O [Compound 13a, (E)-N-(2-(4-(Cyclopentylidene(4-hydroxyphenyl)methyl)phenoxy)ethyl)-3-(3-hydroxy-4-methoxyphenyl)-N-methyl-2-(3,4,5-trimethoxyphenyl)acrylamide]									IC50 [1, 10]: 1.38 µM
COc1ccc(/C=C(/C(=O)N(C)CCOc2ccc(C(=C3CCCCC3)c3ccc(O)cc3)cc2)c2cc(OC)c(OC)c(OC)c2)cc1O [Compound 13b, (E)-N-(2-(4-(Cyclohexaneylidene(4-hydroxyphenyl)methyl)phenoxy)ethyl)-3-(3-hydroxy-4-methoxyphenyl)-N-methyl-2-(3,4,5-trimethoxyphenyl)acrylamide]	2.01								
COc1ccc(/C=C(/C(=O)N(C)CCOc2ccc(C(=C3CCCCCC3)c3ccc(O)cc3)cc2)c2cc(OC)c(OC)c(OC)c2)cc1O [Compound 13c, (E)-N-(2-(4-(Cycloheptylidene(4-hydroxyphenyl)methyl)phenoxy)ethyl)-3-(3-hydroxy-4-methoxyphenyl)-N-methyl-2-(3,4,5-trimethoxyphenyl)acrylamide]	2.5							20	
COc1ccc(/C=C(/C(=O)N(C)CCOc2ccc(C(=C3CCCCCCC3)c3ccc(O)cc3)cc2)c2cc(OC)c(OC)c(OC)c2)cc1O [Compound 13d, (E)-N-(2-(4-(Cyclooctylidene(4-hydroxyphenyl)methyl)phenoxy)ethyl)-3-(3-hydroxy-4-methoxyphenyl)-N-methyl-2-(3,4,5-trimethoxyphenyl)acrylamide]		potently induce apoptosis				lack of toxicity		36	IC50 [1, 10]: 0.346 µM; G2/M-arrest (MCF-7 cells [2]): 27%
COc1ccc(/C=C(/C(=O)N(C)CCOc2ccc(C(=C3CCC(C)CC3)c3ccc(O)cc3)cc2)c2cc(OC)c(OC)c(OC)c2)cc1O (stereo not shown) [Compound 13e, (E)-3-(3-Hydroxy-4-methoxyphenyl)-N-(2-(4-((4-hydroxyphenyl)(4-methylcyclohexaneylidene)methyl)-phenoxy)ethyl)-N-methyl-2-(3,4,5-trimethoxyphenyl) acrylamide]		potently induce apoptosis		12.3	30	lack of toxicity		48	IC50 [1, 10]: 0.182 µM; IC50 ([1]; MCF7, read-out: IC50, antiproliferative activity): 0.187 µM; G2/M-arrest (MCF-7 cells [2]): 18%; IC50 (human ERα): 19 nM; selectivity towards ERα over ERβ (human ERα; binding affinity preference): 12 fold; IC50 (human ERβ): 229 nM
CCC(=C(c1ccccc1)c1ccc(OCCN(C)C(=O)CCC(=O)O)cc1)c1ccccc1 [Compound 14a, N-{2-[4-(1,2-Diphenylbut-1-enyl)phenoxy]ethyl}-N-methylsuccinamic acid]	> 50								antiproliferative activity (in words) ([1]; MCF-7): very low antiproliferative activity; also recorded: no significant antiproliferative activity
CC/C(=C(\c1ccc(O)cc1)c1ccc(OCCN(C)C(=O)CCC(=O)Oc2cc(/C=C\c3cc(OC)c(OC)c(OC)c3)ccc2OC)cc1)c1ccccc1 [Compound 16b, N-(2-{4-[(Z)-1-(4-Hydroxyphenyl)-2-phenylbut-1-enyl]phenoxy}ethyl)-N-methyl succinamic acid 2-methoxy-5-[(Z)-2-(3,4,5-trimethoxyphenyl)vinyl]phenyl ester]									IC50 [1, 10]: 0.0057 µM; remained intact in plasma at 12 h: 77%; cytotoxicity (LDH assay) (MCF-7 cells [5]): 4.1%; half-life (in vitro): > 48 h; remained at 12 h ([6]; pH range 4–9, 12 h): > 90%
CC/C(=C(\c1ccccc1)c1ccc(OCCN(C)C(=O)CCC(=O)Oc2cc(/C=C(/C(=O)OC)c3cc(OC)c(OC)c(OC)c3)ccc2OC)cc1)c1ccccc1 [Compound 16c, N-{2-[4-((Z)-1,2-Diphenylbut-1-enyl)phenoxy]ethyl}-N-methylsuccinamic acid 2-methoxy-5-[(E)-2-methoxycarbonyl-2-(3,4,5-trimethoxyphenyl)vinyl]phenyl ester]			70.9	1.29	8.04		90.1		half-life at 14.6 µg/mL ([6]; half-life, pH range 4–9): > 20 h
CC/C(=C(\c1ccc(O)cc1)c1ccc(OCCNC)cc1)c1ccccc1 [Endoxifen]	0.029		47	2.55	12.1		118		cytotoxicity (LDH assay) (MCF-7 cells [4]): 23%
N-(2-{4-[1,2-Bis-(4-hydroxyphenyl)but-1-enyl]phenoxy}ethyl)-N-methylsuccinamic acid [Compound 14c]			11.3	0.60	50.44		6.7		increase in binding affinity compared to 4-hydroxytamoxifen (human ERα; in both ER isoforms): approximately 3 fold
